From article PMC9250534, “Synthesis and direct assay of large macrocycle diversities by combinatorial late-stage modification at picomole scale” (Nature Communications, 2022)

molecular target: MDM2 (Homo sapiens, UniProt Q00987); assay: MDM2 binding screen of Libraries 3 and 4: displacement of fluorescent probe F-M8 at 750 nM macrocycle; settings: Panel b, Library 3: 63 scaffolds combinatorially acylated with 15 carboxylic acids at 30 picomole scale; displacement of fluorescent peptide probe; macrocycle 750 nM
Procedure, shortened: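 Cyclic peptide scaffolds were acylated in DMSO with carboxylic acids (20 equiv.), HBTU and DABCO for 6 h at room temperature. Reactions were quenched overnight in 100 mM Tris-Cl pH 7.4, 0.01% Tween20. The fluorescein conjugate was also competed with nutlin-3a.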

Chain of MDM2 (Q00987 whole entry): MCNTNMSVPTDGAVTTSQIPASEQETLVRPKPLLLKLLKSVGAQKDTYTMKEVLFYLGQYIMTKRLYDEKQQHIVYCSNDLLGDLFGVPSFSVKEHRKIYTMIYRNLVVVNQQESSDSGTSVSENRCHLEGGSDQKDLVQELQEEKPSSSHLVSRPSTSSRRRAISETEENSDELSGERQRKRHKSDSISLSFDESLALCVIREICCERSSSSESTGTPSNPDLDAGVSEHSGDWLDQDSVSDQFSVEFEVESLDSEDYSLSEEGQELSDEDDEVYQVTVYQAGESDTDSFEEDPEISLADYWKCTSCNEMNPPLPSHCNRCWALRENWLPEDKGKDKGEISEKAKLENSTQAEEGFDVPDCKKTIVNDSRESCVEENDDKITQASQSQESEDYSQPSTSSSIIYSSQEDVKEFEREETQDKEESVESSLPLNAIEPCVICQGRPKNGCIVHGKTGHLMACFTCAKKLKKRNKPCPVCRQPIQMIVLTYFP

Compared with `O=C(CCS(=O)(=O)c1ccccc1)NC[C@H]1NC(=O)C2(CC2)CNC(=O)CCSSCCNC(=O)[C@H](Cc2c[nH]c3cc(Cl)ccc23)NC1=O` [X-Amcp-D-Dap-Cl-Trp + Acid 114], `O=C1CCSSCCNC(=O)[C@H](Cc2c[nH]c3ccccc23)NC(=O)[C@H](CNC(=O)c2ccc(Cl)s2)NC(=O)C2(CC2)CN1` [X-Amcp-Dap-Trp + Acid 14] is higher in “fraction of fluorescent probe displaced” value: -0.00533 for the first, 0.008 for the second.

First: O=C(NC[C@@H]1NC(=O)[C@@H]2CN(CCO2)C(=O)CCSSCCNC(=O)[C@H](Cc2c[nH]c3ccccc23)NC1=O)c1cccc(Oc2ccccc2)c1 [X-Cop-Dap-Trp + Acid 111]
Second: O=C(NC[C@@H]1NC(=O)[C@H]2CCCN(C2)C(=O)CCSSCCNC(=O)[C@H](Cc2cccc3ccccc23)NC1=O)c1ccc2ccccc2c1 [X-Nip-Dap-1-NaI + Acid 107]
The “fraction of fluorescent probe displaced” value of the first is lower: 0.048 for the first, 0.056 for the second.

First: O=C1CCSSCCNC(=O)[C@H](Cc2c[nH]c3ccccc23)NC(=O)[C@@H](CNC(=O)c2ccc3ccccc3c2)NC(=O)C2(CC2)CN1 [X-Amcp-D-Dap-Trp + Acid 107]
Second: O=C1CCSSCCNC(=O)C(Cc2c[nH]c3ccccc23)NC(=O)C(CNC(=O)C2CC2c2ccccc2)NC(=O)C2(CC2)CN1 (mixture of isomers) [X-Amcp-D-Dap-D-Trp + Acid 105]
The “fraction of fluorescent probe displaced” value of the first is higher: 0.024 for the first, -0.041 for the second.

Compared with `O=C(/C=C/c1ccc2ccccc2c1)NC[C@@H]1NC(=O)[C@H]2CCCN(C2)C(=O)CCSSCCNC(=O)[C@H](Cc2c[nH]c3ccccc23)NC1=O` [X-Nip-Dap-Trp + Acid 112], `O=C(/C=C/c1ccc(Cl)cc1)NC[C@@H]1NC(=O)[C@H]2CCCN(C2)C(=O)CCSSCCNC(=O)[C@H](Cc2cccc3ccccc23)NC1=O` [X-Nip-Dap-1-NaI + Acid 108] is lower in “fraction of fluorescent probe displaced” value: 0.574 for the first, 0.041 for the second.

Going from `CN1C(=O)[C@@H](CNC(=O)/C=C/c2ccc3ccccc3c2)NC(=O)[C@@H]2CN(CCO2)C(=O)CCSSCCNC(=O)[C@@H]1Cc1c[nH]c2ccccc12` [X-Cop-D-Dap-NMe-Trp + Acid 112] to `O=C(/C=C/c1ccc(OCc2ccccc2)cc1)NC[C@H]1NC(=O)[C@H]2CCCN(C2)C(=O)CCSSCCNC(=O)[C@H](Cc2ccc3ccccc3c2)NC1=O` [X-Nip-D-Dap-2-Nal + Acid 110], the “fraction of fluorescent probe displaced” value falls from 0.035 to 0.008.

Going from `Cn1cc(CC2NC(=O)C(CNC(=O)C3CC3c3ccccc3)NC(=O)C3(CC3)CNC(=O)CCSSCCNC2=O)c2ccccc21` [X-Amcp-D-Dap-Me-Trp + Acid 105] to `O=C1NC(CNC(=O)C2COc3ccccc3O2)C(=O)NC(Cc2c[nH]c3ccccc23)C(=O)NCCSSCCC(=O)N2CCCC1C2` (mixture of isomers) [X-Nip-D-Dap-Trp + Acid 115], the “fraction of fluorescent probe displaced” value rises from -0.002 to 0.00133.

First: CC(Oc1cccc(Cl)c1)C(=O)NC[C@H]1NC(=O)[C@H]2CCCN(C2)C(=O)CCSSCCNC(=O)[C@H](Cc2cccc3ccccc23)NC1=O (stereo partly drawn) [X-Nip-D-Dap-1-NaI + Acid 113]
Second: CC(Oc1cccc(Cl)c1)C(=O)NC[C@H]1NC(=O)[C@H]2CCCN(C2)C(=O)CCSSCCNC(=O)[C@H](Cc2c[nH]c3cc(Cl)ccc23)NC1=O (stereo partly drawn) [X-Nip-D-Dap-Cl-Trp + Acid 113]
The “fraction of fluorescent probe displaced” value of the first is higher: 0.00133 for the first, -0.00533 for the second.

With `O=C(O)/C=C/c1ccc(OCc2ccccc2)cc1` [Acid 110] the “fraction of fluorescent probe displaced” value was 0.035.

same assay, conditions: Panel c, Library 4: best nine scaffolds and 15 additional carboxylic acids; displacement of fluorescent probe

Compared with `O=C(/C=C/c1ccc(F)cc1)NC[C@@H]1NC(=O)[C@H]2CCCN(C2)C(=O)CCSSCCNC(=O)[C@H](Cc2cccc3ccccc23)NC1=O` [X-Nip-Dap-1-NaI + Acid 116], `CCOc1ccc(C=CC(=O)NCC2NC(=O)C3CN(CCO3)C(=O)CCSSCCNC(=O)C(Cc3c[nH]c4ccccc34)NC2=O)cc1` (stereo not drawn) [X-Cop-Dap-Trp + Acid 117] is higher in “fraction of fluorescent probe displaced” value: 0.052 for the first, 0.199 for the second.

`Cn1cc(C[C@@H]2NC(=O)[C@H](CNC(=O)c3cnc4ccccc4n3)NC(=O)[C@H]3CCCN(C3)C(=O)CCSSCCNC2=O)c2ccccc21` [X-Nip-Dap-Me-Trp + Acid 130] was tested, and the “fraction of fluorescent probe displaced” value was -0.00464.
